Experiments:
BRD9 = target: T1, BRD9 (Homo sapiens, UniProt Q9H8M2); assay: BRD9 HiBiT degradation assay in 293T.166 (HEK293T.166) cells; format: cell-based; parameters: endogenously expressing BRD9 with HiBiT fusion tag via CRISPR; host or cells: HEK293T.166 (293T.166, BRD9-HiBiT HEK293, LgBiT by lentivirus); settings: for DC50: 2.0 hours, read-out: HiBiT-Degradation 293T.166 BRD9 2.0 hours (DC50)
T1 sequence (Q9H8M2 1-597): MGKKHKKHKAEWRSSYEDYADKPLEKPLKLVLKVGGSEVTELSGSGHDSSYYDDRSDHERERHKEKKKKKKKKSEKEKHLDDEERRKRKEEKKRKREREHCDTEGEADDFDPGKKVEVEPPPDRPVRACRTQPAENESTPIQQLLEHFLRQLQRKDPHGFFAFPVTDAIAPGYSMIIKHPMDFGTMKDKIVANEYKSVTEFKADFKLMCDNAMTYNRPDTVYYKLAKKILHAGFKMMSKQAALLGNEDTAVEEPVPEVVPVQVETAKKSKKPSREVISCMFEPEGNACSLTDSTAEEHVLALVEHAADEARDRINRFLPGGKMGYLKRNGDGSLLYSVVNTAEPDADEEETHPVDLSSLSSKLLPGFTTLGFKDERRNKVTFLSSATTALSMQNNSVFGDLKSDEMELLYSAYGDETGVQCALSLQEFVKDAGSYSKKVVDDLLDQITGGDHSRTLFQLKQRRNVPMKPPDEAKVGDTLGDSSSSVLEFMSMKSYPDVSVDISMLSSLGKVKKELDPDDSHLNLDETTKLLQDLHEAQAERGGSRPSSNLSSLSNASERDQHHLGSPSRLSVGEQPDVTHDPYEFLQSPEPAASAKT
Protocol: Selected compounds were tested in a BRD9 degradation assay using the HiBit Method.
Dulbecco's modified Eagle medium (DMEM) without phenol red and fetal bovine serum (FBS) were purchased from Gibco (Grand Island, NY, USA). Nano-Glo® HiBiT Lytic Assay System was purchased from Promega (Madison, WI, USA). 293T.166 (BRD9-HiBiT) cell line, endogenously expressing BRD9 with HiBiT fusion tag via CRISPR and ectopically expressing LgBiT tag, was purchased from Promega (Madison, WI, USA). 293T.167 (BRD7-HiBiT) cell line, endogenously expressing BRD7 with HiBiT fusion tag via CRISPR and ectopically expressing LgBiT tag, was purchased from Promega (Madison, WI, USA). 293T.92 (BRD4-HiBiT) cell line, endogenously expressing BRD4 with HiBiT fusion tag via CRISPR and ectopically expressing LgBiT tag, was generated in-house. Cell culture flasks and 384-well microplates were acquired from VWR (Radnor, PA, USA).
BRD9 degradation was determined based on quantification of luminescent signal using Nano-Glo® HiBiT Lytic Assay kit. Test compounds were added to the 384-well plate from a top concentration of 10 μM with 11 points, half log titration in duplicates. 293T.166 cells were added into 384-well plates at a cell density of 10,000 cells per well. The plates were kept at 37° C. with 5% CO2 for 2 hours. BRD7 and BRD4 degradation was similarly determined with 293T.167 cells and 293T.92 cells, respectively. The cells treated in the absence of the test compound were the negative control and the cells without Nano-Glo® HiBiT Lytic reagent were the positive control. After 2-hour incubation, Nano-Glo® HiBiT Lytic Assay reagents were added to the cells. Luminescence was acquired on EnVision® Multilabel Reader (Catalog No. 2104-0010, Perkin Elmer Inc., Dumfries, VA, USA).
This assay evaluates the degradation of BRD9 induced by treatment with Compound 1 or Compound 2 as measured by luminescence using Nano-Glo® HiBiT Lytic Assay System in HEK293 cells CRISPR-edited to endogenously express HiBiT tagged BRD9 and exogenously express LgBiT protein.
Nano-Glo® HiBiT Lytic Assay System was purchased from Promega (Catalog No. N3050, Madison, WI, USA). BRD9-HiBiT HEK293 cells were purchased from Promega (Catalog No. CS302348, Madison, WI, USA). The cells were maintained in Dulbecco's modified Eagle medium (DMEM) without phenol red (Catalog No. 12430112, ThermoFisher Scientific, Waltham, MA, USA) supplemented with 10% fetal bovine serum (FBS) (Catalog No. 16000-044, Gibco, Grand Island, NY, USA) at 37° C. in an atmosphere of 5% CO2 in air. The HiBiT polypeptide tag was introduced into the C-terminus of the endogenous BRD9 locus by CRISPR-Cas9 and the LgBiT protein was introduced via Lentiviral infection to produce the modified HEK293T.166 cell line. The HiBiT polypeptide and LgBiT protein allow reconstitution of NanoBiT enzyme in the cells. The Nano-Glo® HiBiT Lytic Substrate was then added and activated by the NanoBiT enzyme following cell lysis to produce a luminescent signal that is directly proportional to the amount of HiBiT-tagged BRD9.
The HEK293T.166 cells were routinely sub-cultured to maintain cell density between 30-80% confluence, not to exceed 20 passages. Cells were washed with PBS pH 7.4 (Catalog No. 10010049, ThermoFisher Scientific, Waltham, MA, USA), trypsinized for 5 minutes at 37° C., and resuspended in fresh growth media without phenol red. An aliquot was diluted 2× with Trypan Blue solution 0.4% (Catalog No. 15250061, ThermoFisher Scientific, Waltham, MA, USA) and cell count determined. Cell concentration was adjusted with growth media without phenol red to 3.3×10^5 cells/mL.
Compound 1 or Compound 2 was prepared by dissolving neat compounds in DMSO (Catalog No. D8418, Sigma-Aldrich, Inc., St. Louis, MO, USA) to generate 10 mM stock solution and stored at −20° C. […]

[1] = Hygroscopicity by DVS at 25° C.; format: physicochemical
Protocol: Hygroscopicity of Form A and Form N was investigated by DVS at 25° C. […] Form A converted to Form K after the DVS test. Form K is a metastable hydrate. It reverted back to Form A after exposure to ambient condition.
Hygroscopicity of the free base Pattern A* and the urea cocrystal Form P were evaluated by DVS at 25° C.

[2] = Solubility study in aqueous media at 37° C.; settings: for Solubility: target 10 mg/5 mL, LOQ: 50 μg/mL
[3] = pH 4.5, 50 mM acetate buffer, 2 h
[4] = pH 4.5, 50 mM acetate buffer, 24 h

Compound: COc1cc(-c2cn(C)c(=O)c(C)c2C)cc(OC)c1CN1CC[C@H](N2CCN(c3ccc(N[C@@H]4CCC(=O)NC4=O)cc3F)CC2)C(F)(F)C1 [Compound 2]
- % BRD9 Remaining Relative to Vehicle Control at 2 hr, Mean (BRD9; 0.010 nM): 103.0%
- % BRD9 Remaining Relative to Vehicle Control at 2 hr, Mean (BRD9; 0.032 nM): 95.9%
- % BRD9 Remaining Relative to Vehicle Control at 2 hr, Mean (BRD9; 0.100 nM): 105.0%
- % BRD9 Remaining Relative to Vehicle Control at 2 hr, Mean (BRD9; 0.315 nM): 103.3%
- % BRD9 Remaining Relative to Vehicle Control at 2 hr, Mean (BRD9; 0.997 nM): 105.4%
- % BRD9 Remaining Relative to Vehicle Control at 2 hr, Mean (BRD9; 3.15 nM): 100.2%
- % BRD9 Remaining Relative to Vehicle Control at 2 hr, Mean (BRD9; 10.0 nM): 87.1%
- % BRD9 Remaining Relative to Vehicle Control at 2 hr, Mean (BRD9; 31.7 nM): 75.4%
- % BRD9 Remaining Relative to Vehicle Control at 2 hr, Mean (BRD9; 100 nM): 49.0%
- % BRD9 Remaining Relative to Vehicle Control at 2 hr, Mean (BRD9; 316 nM): 33.1%
- % BRD9 Remaining Relative to Vehicle Control at 2 hr, Mean (BRD9; 999 nM): 39.0%
- DC50 (BRD9; 293T.166 cells): < 100 nM
- Emax (BRD9; BRD9-HiBiT, 293T.166 cells, 2 hours, read-out: Mean Emax (%) ± SD): 33.1 ± 9.92%
- Dmax (BRD9; HEK293T.166 cells, 2-hour treatment, read-out: maximal degradation of BRD9): ~70%

Compound: COc1cc(-c2cn(C)c(=O)c(C)c2C)cc(OC)c1CN1CC[C@@H](N2CCN(c3ccc(N[C@H]4CCC(=O)NC4=O)cc3F)CC2)C(F)(F)C1 [Compound 3]
- DC50 (BRD9; 293T.166 cells): < 100 nM

Compound: COc1cc(-c2cn(C)c(=O)c(C)c2C)cc(OC)c1CN1CC[C@H](N2CCN(c3ccc(N[C@H]4CCC(=O)NC4=O)cc3F)CC2)C(F)(F)C1.NC(N)=O [Urea cocrystal Pattern P]
- XRPD after DVS test [1]: No form change
- water uptake from 40% RH to 90% RH ([1]; DVS): <90% RH, 1.6% water
- water uptake from 40% RH to 95% RH ([1]; DVS): 3.1% water uptake from
- 1st desorp. (%) ([1]; DVS, 0% RH): 0.0%
- 2nd sorp. (%) ([1]; DVS, 0% RH): 0.0%
- 1st desorp. (%) ([1]; DVS, 10% RH): 2.2%
- 2nd sorp. (%) ([1]; DVS, 10% RH): 1.2%
- 1st desorp. (%) ([1]; DVS, 20% RH): 3.1%
- 2nd sorp. (%) ([1]; DVS, 20% RH): 2.8%
- 1st desorp. (%) ([1]; DVS, 30% RH): 3.7%
- 2nd sorp. (%) ([1]; DVS, 30% RH): 3.3%
- 1st desorp. (%) ([1]; DVS, 40% RH): 4.2%
- 1st sorp. (%) ([1]; DVS, 40% RH): 4.0%
- 2nd desorp. (%) ([1]; DVS, 40% RH): 4.2%
- 2nd sorp. (%) ([1]; DVS, 40% RH): 3.7%
- 1st desorp. (%) ([1]; DVS, 50% RH): 4.5%
- 1st sorp. (%) ([1]; DVS, 50% RH): 4.2%
- 2nd desorp. (%) ([1]; DVS, 50% RH): 4.5%
- 2nd sorp. (%) ([1]; DVS, 50% RH): 4.1%
- 1st desorp. (%) ([1]; DVS, 60% RH): 4.7%
- 1st sorp. (%) ([1]; DVS, 60% RH): 4.4%
- 2nd desorp. (%) ([1]; DVS, 60% RH): 4.7%
- 2nd sorp. (%) ([1]; DVS, 60% RH): 4.4%
- 1st desorp. (%) ([1]; DVS, 70% RH): 5.0%
- 1st sorp. (%) ([1]; DVS, 70% RH): 4.7%
- 2nd desorp. (%) ([1]; DVS, 70% RH): 5.0%
- 2nd sorp. (%) ([1]; DVS, 70% RH): 4.8%
- 1st desorp. (%) ([1]; DVS, 80% RH): 5.2%
- 1st sorp. (%) ([1]; DVS, 80% RH): 5.1%
- 2nd desorp. (%) ([1]; DVS, 80% RH): 5.3%
- 2nd sorp. (%) ([1]; DVS, 80% RH): 5.1%
- 1st desorp. (%) ([1]; DVS, 90% RH): 5.8%
- 1st sorp. (%) ([1]; DVS, 90% RH): 5.6%
- 2nd desorp. (%) ([1]; DVS, 90% RH): 5.8%
- 2nd sorp. (%) ([1]; DVS, 90% RH): 5.6%
- 1st desorp. (%) ([1]; DVS, 95% RH): 7.1%
- 1st sorp. (%) ([1]; DVS, 95% RH): 7.1%
- 2nd desorp. (%) ([1]; DVS, 95% RH): 7.3%
- 2nd sorp. (%) ([1]; DVS, 95% RH): 7.3%
- pH ([2]; FaSSIF-v1, pH 6.5, 2 h): pH: 6.5
- Solubility ([2]; FaSSIF-v1, pH 6.5, 2 h): <LOQ
- pH ([2]; FaSSIF-v1, pH 6.5, 24 h): pH: 6.5
- Solubility ([2]; FaSSIF-v1, pH 6.5, 24 h): <LOQ
- pH ([2]; FeSSIF-v1, pH 5.0, 2 h): pH: 5.0
- Solubility ([2]; FeSSIF-v1, pH 5.0, 2 h): 280 µg/mL
- pH ([2]; FeSSIF-v1, pH 5.0, 24 h): pH: 4.9
- Solubility ([2]; FeSSIF-v1, pH 5.0, 24 h): 340 µg/mL
- pH ([2]; SGF, pH 1.8, 2 h): pH: 2.4
- Solubility ([2]; SGF, pH 1.8, 2 h): >2000 µg/mL
- pH ([2]; SGF, pH 1.8, 24 h): pH: 2.4
- Solubility ([2]; SGF, pH 1.8, 24 h): >2000 µg/mL
- pH ([2]; pH 1.0 (0.1N HCl), 2 h): pH: 1.0
- Solubility ([2]; pH 1.0 (0.1N HCl), 2 h): >2000 µg/mL
- pH ([2]; pH 1.0 (0.1N HCl), 24 h): pH: 1.0
- Solubility ([2]; pH 1.0 (0.1N HCl), 24 h): >2000 µg/mL
- pH [2, 3]: pH: 4.6
- Solubility [2, 3]: 240 µg/mL
- pH [2, 4]: pH: 4.5
- Solubility [2, 4]: 140 µg/mL

Compound: COc1cc(-c2cn(C)c(=O)c(C)c2C)cc(OC)c1CN1CC[C@@H](N2CCN(c3ccc(N[C@@H]4CCC(=O)NC4=O)cc3F)CC2)C(F)(F)C1 [Compound 4]
- DC50 (BRD9; 293T.166 cells): < 100 nM

Compound: COc1cc(-c2cn(C)c(=O)c(C)c2C)cc(OC)c1CN1CCC(N2CCN(c3ccc(NC4CCC(=O)NC4=O)cc3F)CC2)C(F)(F)C1 (stereo not shown) [Compound 5]
- DC50 (BRD9; 293T.166 cells): < 100 nM
